{"source": "patent US12116397B2", "about": "“IL-IR-I binding polypeptide” (Swedish Orphan Biovitrum AB (publ), priority 2017, dated 2024)", "key": {"[1]": {"test_system": "Normal Human Dermal Fibroblasts (NHDF) cells", "assay": "Inhibition of IL-1β induced IL-6 production in NHDF cells", "assay_type": "cell-based", "settings": "3.4 pM IL-1β", "protocol": "The inhibitory effect of IL-1R-I binding fusion proteins on IL-1β induced IL-6 production in Normal Human Dermal Fibroblasts (NHDF) cells was monitored.\nCells were seeded three days prior to treatment with proteins. […] Harvested medium was diluted 41× before IL-6 content was analyzed using a human IL-6 ELISA kit (R&D Systems) according to manufacturer's recommendations. Data was analyzed using XLfit and IC50 values were calculated from concentration-response curves."}, "[2]": {"test_system": "human whole blood", "assay": "Inhibition of IL-1β induced IL-6 production in whole blood", "assay_type": "cell-based", "settings": "100 pM IL-1β", "method": "The inhibitory effect of IL-1R-I binding fusion proteins on IL-1β induced IL-6 production in whole blood from individual donors was measured.\nBlood from healthy donors was collected 1-3 hours prior to treatment with the IL-1R-I binding fusion proteins (SEQ ID NO:1648-1649). Proteins (IL-1R-I binding fusion proteins or anakinra) were diluted to starting concentration of 500 nM in serum free RPMI (ThermoFisher Scientific, RPMI 1640 Medium, GlutaMAX™ Supplement, Cat. No.: 61870010) and subsequently serially diluted 1:3 in a ten-step dilution series resulting in a concentration range of 500 nM to 25 pM. The IL-1R-I binding fusion polypetides or anakinra were tested in presence of a challenge dose of 100 pM IL-1β. The blood was incubated for 21-23 hours with proteins, followed by harvesting of plasma. Harvested plasma was diluted 2× and IL-6 content was analyzed by using a human IL-6 kit (V-PLEX Human IL-6 Kit Human interleukin-6, MSD) according to manufacturer's recommendations.\nIL-6 concentrations (pg/ml) were calculated using a standard curve (provided by the kit) and data was analyzed using XLfit and IC50 values were calculated from the concentration-response curves."}}, "data": [{"substance": "Kineret: recombinant form of endogenous IL-1Ra denoted anakinra (Kineret)", "values": [{"measurement": "IL-1β induced IL-6 release from NHDF cells", "setting": "[1]", "result": "reduced in a concentration-dependent manner"}, {"measurement": "IL-1β induced IL-6 release in human whole blood", "setting": "[2]", "result": "reduced in a concentration-dependent manner"}]}]}
